Data on one molecule can be found in patent US5114843A, “Humoral hypercalcemic factor antagonists” (Merck & Co., Inc., priority 1991, dated 1992).

For this assay, the target named is T1, Bovine renal cortical plasma membranes (Bos taurus, UniProt Q1LZF7).
T1 construct: from tissue; host or cells: bovine renal cortex plasma membranes
T1 sequence (Q1LZF7 29-589): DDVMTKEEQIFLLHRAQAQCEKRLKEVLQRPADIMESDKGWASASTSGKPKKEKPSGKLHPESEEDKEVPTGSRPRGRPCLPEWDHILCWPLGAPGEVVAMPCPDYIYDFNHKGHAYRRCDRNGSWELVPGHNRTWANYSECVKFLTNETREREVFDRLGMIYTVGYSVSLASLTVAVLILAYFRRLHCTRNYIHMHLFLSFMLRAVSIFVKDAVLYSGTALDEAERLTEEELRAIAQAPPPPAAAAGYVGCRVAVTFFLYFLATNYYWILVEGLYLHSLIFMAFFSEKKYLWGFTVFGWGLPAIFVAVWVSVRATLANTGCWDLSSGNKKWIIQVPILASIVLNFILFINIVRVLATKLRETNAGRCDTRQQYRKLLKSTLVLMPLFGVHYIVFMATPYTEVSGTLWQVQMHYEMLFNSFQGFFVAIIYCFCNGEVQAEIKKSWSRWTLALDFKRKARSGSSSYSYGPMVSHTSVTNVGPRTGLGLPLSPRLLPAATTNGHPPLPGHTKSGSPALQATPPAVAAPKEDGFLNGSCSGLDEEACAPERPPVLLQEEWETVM
The assay can be described thus: HCF binding (receptor) assay with [Nle8,18,(125I)-Tyr34]bPTH(1-34)NH2 radioligand. To be noted: radioligand [Nle8,18,(125I)-Tyr34]bPTH(1-34)NH2, 30 min at 21° C. The procedure:
HCF analogues were analysed in a new receptor assay (Goldman et al., Endocrinol. (1988) 123: 1468-1475) which modified the assay reported in Rosenblatt et al., Endocrin. 107: 545-550 (1980). The binding assay used [Nle^8,18 (^125 I)-Tyr^34 ]bPTH (1-34)NH2 which was purified by HPLC (Novapak C18, 32-35% CH3 CN in 0.1% TFA) and was stored as aliquots in 25 mM TrisHCl/1%BSA at -70° C. Bovine renal cortical plasma membranes were incubated with radioligand (25,000 cpm) in the absence or presence of HCF analogues in a Tris-containing buffer (250 μl) for 30 min. at 21° C. Once equilibrium was reached, bound and free radioligand were separated by centrifugation.
High specific binding (85%) to bovine renal cortical membranes was obtained consistently.

Take `CC[C@H](C)[C@H](NC(=O)[C@H](CC(C)C)NC(=O)[C@H](Cc1c[nH]cn1)NC(=O)[C@H](Cc1c[nH]cn1)NC(=O)[C@H](CC(C)C)NC(=O)[C@H](Cc1ccccc1)NC(=O)[C@H](Cc1ccccc1)NC(=O)[C@H](CCCNC(=N)N)NC(=O)[C@H](CCCNC(=N)N)NC(=O)[C@H](CCCNC(=N)N)NC(=O)[C@H](CC(C)C)NC(=O)[C@H](CC(=O)O)NC(=O)[C@H](CCC(N)=O)NC(=O)[C@@H](NC(=O)[C@@H](N)CO)[C@@H](C)CC)C(=O)N[C@@H](C)C(=O)N[C@@H](CCC(=O)O)C(=O)N[C@H](C(=O)N[C@@H](Cc1c[nH]cn1)C(=O)N[C@H](C(=O)N[C@@H](C)C(N)=O)[C@@H](C)O)[C@@H](C)CC` [hHCF(14-34)NH2]: the Ki stood at 1400 ± 83 nM.

One may read the Ki as a measure of affinity in units of concentration, obtained from inhibition or displacement. High values mean a looser hold on the target, low ones a stronger hold on the target.
